Source: article PMC9579956 (RSC Medicinal Chemistry, 2022)

biological target: Mycobacterium thermoresistible (Mtr) LpqY (Mycolicibacterium thermoresistibile, UniProt G7CES0); type: binding; conditions: single dose MST screen against LpqY
Sequence (G7CES0 29-471): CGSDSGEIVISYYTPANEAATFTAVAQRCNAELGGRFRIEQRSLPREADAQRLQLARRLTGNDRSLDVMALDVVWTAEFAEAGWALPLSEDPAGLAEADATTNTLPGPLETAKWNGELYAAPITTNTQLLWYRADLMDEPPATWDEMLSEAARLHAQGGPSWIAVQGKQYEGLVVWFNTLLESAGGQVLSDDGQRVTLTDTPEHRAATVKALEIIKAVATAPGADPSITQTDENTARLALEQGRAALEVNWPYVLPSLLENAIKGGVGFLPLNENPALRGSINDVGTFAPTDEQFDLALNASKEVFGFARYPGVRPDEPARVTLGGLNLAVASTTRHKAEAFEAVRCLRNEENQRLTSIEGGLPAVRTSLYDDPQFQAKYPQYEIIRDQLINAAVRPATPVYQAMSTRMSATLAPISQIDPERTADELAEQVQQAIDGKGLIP

Compound | Pathogen Box screen signal/noise ratio
NS(=O)(=O)c1cncc(-c2ccc3nccc(-c4cn[nH]c4)c3n2)c1 [MMV024101] | 0.429
Nc1ncnc2[nH]nc(Cc3cccc4ccccc34)c12 [MMV688469] | 0.357
O=C(Cn1ccnc1[N+](=O)[O-])NCc1ccccc1 [MMV688773] | 2.9
COc1cccc(-n2nnnc2S(C)(=O)=O)c1 [MMV272144] | 0.7
COC(=O)C1=C(C)NC(C)=C(C(=O)OC(C)C)C1c1cccc2nonc12 (stereo not shown) [MMV001493] | 1.1
CC[C@H](CO)NCCN[C@H](CC)CO [MMV687801] | 1.5
CCCc1ccc(S(=O)(=O)Nc2ccc(CN3CCN(CC4CC4)CC3)cc2)cc1 [MMV688125] | 0.6
CC(C)(C)c1cc(C(=O)Nc2cccnc2)cc(C(=O)Nc2cccnc2)c1 [MMV020982] | 1.3
Nc1ncnc2c1ncn2C[C@@H](O)[C@@H](O)C(=O)O [MMV689255] | 2.5
CN(C)CCNC(=O)N1CCCN(c2ncnc3cc(-c4ccccc4)sc23)CC1 [MMV024195] | 0.217
CC(C)=CCC/C(C)=C\CNCCNC1C2CC3CC(C2)CC1C3 (stereo not shown) [MMV687273] | 1.3
CN1CCC(NCc2cccc(-c3ccc(S(=O)(=O)NCc4ccccc4)cc3)c2)CC1 [MMV022029] | -0.0167
CCN(CC)CCCN1CCN(C(=O)c2cccc(-c3noc(C(F)(F)F)n3)c2)CC1 [MMV022236] | 0.542
CC(C)(C)C1CCC(CC2=C(O)C(=O)c3ccccc3C2=O)CC1 (stereo not shown) [MMV689480] | 2.3
Cc1nnc(NC(=O)c2cn(-c3ccccc3)nc2-c2ccccc2C)o1 [MMV020320] | 0.6
COc1ccc(N(CCc2cccc(C)n2)C(C)=O)cc1 [MMV675995] | 0.318
c1cc(C2=NCCN2)cc(-c2cc(-c3ccc(C4=NCCN4)cc3)no2)c1 [MMV688361] | 0.271
COc1ccc(C2=NN(C3CCCCCC3)C(=O)C2(C)C)cc1OCc1ccccn1 [MMV688360] | 1.5
Cc1cc(C)nc(-n2nc(C)cc2Nc2ccccc2)n1 [MMV062221] | 0.8
CS(=O)(=O)c1ccc(C(=O)N(CC2CCCO2)c2nc3ccccc3s2)cc1[N+](=O)[O-] (stereo not shown) [MMV688761] | 0.6
c1ccc(Oc2ccc(-c3cc(CN4CCOCC4)[nH]n3)cc2)cc1 [MMV676161] | 1.1

Compound | Pathogen Box screen signal/noise ratio
Cc1cc(C(=O)Nc2ccc(-c3ccccc3)cc2)no1 [MMV020152] | 0.742
CC(C)C(C(=O)Nc1ccc(S(=O)(=O)N(C)C)cc1)c1ccc(Cl)cc1 (stereo not shown) [MMV020391] | 0.25
CCOc1ccc(-c2nc(NC(=O)CS(=O)(=O)c3ccccc3)sc2C)cc1 [MMV007638] | 0.254
Cc1nnc(NCc2cccc(Cl)c2)c2ccccc12 [MMV676555] | 0.9
Cc1ccc2[nH]c3c(NCCN(C)C)ncnc3c2c1 [MMV006372] | 0.333
O=C(C1CCN(c2nnnn2-c2ccccc2)CC1)N1CCc2ccccc2C1 [MMV009135] | 1.2
COc1cccc(-c2nc3c(N4CCCC4)cccc3n2CC2CCCN2)n1 (stereo not shown) [MMV687703] | 1.3
COc1ccc(CN2CCOc3ccc(C(C)(O)CN(C)C)cc3C2)cc1C (stereo not shown) [MMV008439] | 0.222
COc1cccc(CC(=O)N2CCC(n3c(C)nc4ccc(F)cc43)CC2)c1 [MMV020081] | 0.152
Nc1nc2ccc(-c3cncc(Oc4ccc(F)cc4)c3)cc2[nH]1 [MMV687248] | 0.2
COCC(C)NC(=O)CSc1ncnc2sc(-c3ccccc3)cc12 (stereo not shown) [MMV676536] | 1.9
CC(=O)Nc1ccc(NC(=O)c2cc(-c3cc(Cl)ccc3O)[nH]n2)cc1 [MMV676380] | 1.2
COc1cc(NC(=O)Cc2nn(C)c(=O)c3ccccc23)ccc1Cl [MMV676053] | 1.3
COc1ccc(-c2cnc3cnc(-c4cccc(OC(C)C)c4)cn23)cc1 [MMV688270] | 0.0179
O=C(C(Cc1c[nH]c2ccccc12)NS(=O)(=O)c1ccc(Cl)cc1)N1CCCCC1 (stereo not shown) [MMV085210] | 2.9
CN1CCN(c2cc(-c3ccc(F)cc3)nc(-c3ccncc3)n2)CC1 [MMV688888] | 2.6
O[C@@H](c1cc(C(F)(F)F)nc2c(C(F)(F)F)cccc12)[C@H]1CCCCN1 [MMV000016] | 1.8
O=C(c1[nH]nc2c1CCCC2)N1CCN(Cc2ccc3c(c2)OCO3)CC1 [MMV676389] | 1.7
CC(=O)NCC1CN(c2ccc(-c3ccc(CNCc4cn[nH]n4)cc3)c(F)c2)C(=O)O1 (stereo not shown) [MMV688327] | 0.344
CC(C)NCC(=O)Nc1cccc(C(=O)Nc2cccc(C(F)(F)F)c2)c1 [MMV020165] | 4.3
Cc1ccc(-c2cc(C(=O)Nc3cccnc3)c3cc(Br)ccc3n2)cc1 [MMV016838] | 0.75

Compound | Pathogen Box screen signal/noise ratio
CCc1cc(=O)n(C)c(SC(C)C(=O)Nc2ccc(F)cc2)n1 (stereo not shown) [MMV688980] | 1.3
FC(F)(F)c1cccc(-c2nc3c(NCc4ccncc4)nccc3[nH]2)c1 [MMV032967] | 3.3
CCOc1ccc(-c2nc(CNCCc3ccc(F)cc3)cs2)cc1 [MMV688938] | -0.25
CC(C(=O)Nc1ccc2oc(-c3ccncc3)nc2c1)c1ccccc1 (stereo not shown) [MMV688471] | 1.6
Cc1cc(NC(=O)c2ccc(Oc3ccc(Cl)cc3O)o2)no1 [MMV688955] | 0.4
COc1ccc(-c2onc(C(F)(F)F)c2-c2ccc(Cl)cc2)c(O)c1 [MMV688766] | 0.9
CNc1snc(C)c1C(=O)NCCOc1ccc(OC)cc1 [MMV688554] | 0.8
CCOc1ccc2cc(-c3nn(CC4CCN(C)CC4)c4ncnc(N)c34)ccc2c1 [MMV688854] | 1.2
CNc1nnc(Sc2cnn(-c3ccccc3)c(=O)c2Cl)s1 [MMV688763] | 4.7
CCc1ccccc1-n1c(C)cn2c3c(=O)n(C(C(=O)OC)C(C)C)c(=O)n(C)c3nc12 (stereo not shown) [MMV688550] | 0.222
Oc1c(I)cc(I)c2cccnc12 [MMV002817] | 0.152
Nc1nccc2ccc(Oc3ccncc3)cc12 [MMV026313] | 1.4
CCC(NC(=O)c1ccccc1NC(=O)c1ccc(C)cc1)C(=O)OC (stereo not shown) [MMV019551] | 0.267
CCn1cnc2c(Nc3cc(F)cc(F)c3)nc(C#N)nc21 [MMV676881] | 0.536
Brc1c(-c2ccc3c(c2)OCO3)nc2ncccn12 [MMV676377] | 2.9
CCOC(=O)c1noc(N)c1-c1ccccc1 [MMV1236379] | 1.2
O=C(Nc1ccnc(-c2cccnc2)n1)c1cc(C(F)(F)F)cc(C(F)(F)F)c1 [MMV019838] | 2.8
CC1(COc2ccc(N3CCC(Oc4ccc(OC(F)(F)F)cc4)CC3)cc2)Cn2cc([N+](=O)[O-])nc2O1 (stereo not shown) [MMV688262] | 0.232
COc1ccccc1CNC(=O)c1cc(C2CC2)nc2c1cnn2C(C)C [MMV020517] | 2.3
N=C(N)Nc1ccc(-c2ccc(-c3ccc(N=C(N)N)c(Cl)c3)o2)cc1Cl [MMV688271] | 2.0
CC(C)(C)n1nc(Cc2ccc(F)c(Cl)c2)c2c(N)ncnc21 [MMV688852] | 0.7

Compound | Pathogen Box screen signal/noise ratio
O=C(NCCc1ccccc1)c1cc(-c2cccnc2)cnc1NCC1CC1 [MMV026490] | 1.4
Cc1cccc(NC(=O)c2cc(S(=O)(=O)N(C)c3ccc(F)cc3)ccc2Cl)n1 [MMV676528] | 1.1
O=C1O[C@@H](CO)CN1c1cc(F)c(C2=CCN(Cc3ccccc3)CC2)c(F)c1 [MMV687729] | 1.5
Cc1cc2ccccc2n1CC(=O)N1CC(C(=O)N2CCCCC2)Oc2ccccc21 (stereo not shown) [MMV020520] | 2.0
Cc1ccc2nc(C)c(-c3ccn(Cc4ccccc4)n3)n2c1 [MMV688939] | -0.2
CCc1nn(C)c(C(=O)NCc2ccc(Oc3ccc(C)cc3)cc2)c1Cl [MMV688934] | 1.5
Clc1ccc(CCNc2cc(-c3ccccc3)nc3ncnn23)cc1 [MMV688889] | 3.0
c1ccc(Oc2ccc(-c3cc(C4CCOCC4)[nH]n3)cc2)cc1 [MMV687762] | 0.6
CN1CCN(CCCOc2ncc(Nc3ncc(-c4ccc(C(F)(F)F)c(F)c4)nc3C(N)=O)cn2)CC1 [MMV687812] | 4.1
Nc1ccc2ncnc(Nc3ccc(OCc4cccc(F)c4)c(Cl)c3)c2c1 [MMV688273] | 0.8
CC1CCCN(C(=O)C(C)Nc2cc(Cl)ccc2N2CCOCC2)C1 (stereo not shown) [MMV020388] | 0.556
Cc1ccc2[nH]c(C3CCCNC3)c(-c3ccncc3)c2c1 (stereo not shown) [MMV024311] | 0.4
CC1CCCCN1C(=O)NCCc1coc(-c2ccc(F)cc2)n1 (stereo not shown) [MMV688797] | 1.4
Cc1ccc(NC(=O)c2cc(S(=O)(=O)NC(C)(C)C)ccc2C)nc1 [MMV020289] | 1.4
Cc1cc(Nc2ccncc2)n2nc(C)c(-c3ccccc3Cl)c2n1 [MMV016136] | 1.7
Cc1cc(O)nc(-n2nc(C)cc2C)n1 [MMV393995] | 0.65
O=S(=O)(c1ccc(Cl)cc1)N1CCN(C(=S)NCc2ccco2)CC1 [MMV000858] | 2.2
C[C@H](C(N)=O)N1CCCC[C@@H]1c1ccc(OCc2cccc(F)c2)cc1 [MMV676270] | 0.9
CC(=O)N1CCc2cc3nc(C)cc(C)c3cc21 [MMV054312] | 0.107
